Results taken from ChEMBL document CHEMBL1157712, “Hit to lead account of the discovery of bisbenzamide and related ureidobenzamide inhibitors of Rho kinase” (J Med Chem, 2010).
≈ marks a conversion by molar mass, not a printed value. Values belong to the compound of their own block, whether it stands above or below them.

Experiments:
[1] = target: T1, Rho-associated protein kinase 2 (Homo sapiens, UniProt O75116); test: Inhibition of human ROCK2 by IMAP assay
[2] = target: T1, Rho-associated protein kinase 2
Description: (§2) Inhibition of human ROCK2 by homogenous luciferase assay

[3] = target: T1, Rho-associated protein kinase 2; remark: listed apart in the source
Description: as §2

[4] = target: T2, Protein kinase C epsilon type (Homo sapiens, UniProt Q02156); test: Inhibition of PKCepsilon
T2 sequence (Q02156 whole entry): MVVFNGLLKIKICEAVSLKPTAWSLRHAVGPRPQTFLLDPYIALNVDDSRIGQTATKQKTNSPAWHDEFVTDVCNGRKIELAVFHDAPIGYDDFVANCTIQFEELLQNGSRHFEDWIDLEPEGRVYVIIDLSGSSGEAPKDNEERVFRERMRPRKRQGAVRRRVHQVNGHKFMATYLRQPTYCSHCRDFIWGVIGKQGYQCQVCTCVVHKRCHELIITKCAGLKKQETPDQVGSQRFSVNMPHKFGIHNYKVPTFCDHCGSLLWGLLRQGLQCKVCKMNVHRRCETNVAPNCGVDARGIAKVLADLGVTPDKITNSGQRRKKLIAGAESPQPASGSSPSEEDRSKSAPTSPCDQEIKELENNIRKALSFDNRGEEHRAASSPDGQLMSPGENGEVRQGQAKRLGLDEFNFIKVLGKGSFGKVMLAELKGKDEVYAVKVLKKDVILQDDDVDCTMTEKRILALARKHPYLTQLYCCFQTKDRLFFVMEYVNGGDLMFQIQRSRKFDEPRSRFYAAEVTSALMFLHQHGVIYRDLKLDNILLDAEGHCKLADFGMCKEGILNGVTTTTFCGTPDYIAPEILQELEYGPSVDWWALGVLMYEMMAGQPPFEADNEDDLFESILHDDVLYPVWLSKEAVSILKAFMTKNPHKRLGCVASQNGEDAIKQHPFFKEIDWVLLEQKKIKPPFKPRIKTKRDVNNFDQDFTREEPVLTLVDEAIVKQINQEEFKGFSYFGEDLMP

[5] = target: Serine/threonine-protein kinase N2 (Homo sapiens, UniProt Q16513)
[6] = target: Serine/threonine-protein kinase MRCK beta (Homo sapiens) (UniProt Q9Y5S2); test: Inhibition of CDC42BPB
[7] = (§1) Permeability from apical to basolateral side in human Caco-2 cells; assay type: ADME, cell-based; details: Caco-2, read-out: permeability
[8] = Permeability from basolateral to apical side in human Caco-2 cells; assay type: ADME, cell-based; details: read-out: permeability
[9] = Metabolic stability in human liver microsomes assessed as half life; assay type: ADME, Microsome
Cytochrome P450 1A2 = target: T3, Cytochrome P450 1A2 (Homo sapiens, UniProt P05177); test: Inhibition of human CYP1A2 by fluorescence assay; assay type: ADME
T3 sequence (P05177 whole entry): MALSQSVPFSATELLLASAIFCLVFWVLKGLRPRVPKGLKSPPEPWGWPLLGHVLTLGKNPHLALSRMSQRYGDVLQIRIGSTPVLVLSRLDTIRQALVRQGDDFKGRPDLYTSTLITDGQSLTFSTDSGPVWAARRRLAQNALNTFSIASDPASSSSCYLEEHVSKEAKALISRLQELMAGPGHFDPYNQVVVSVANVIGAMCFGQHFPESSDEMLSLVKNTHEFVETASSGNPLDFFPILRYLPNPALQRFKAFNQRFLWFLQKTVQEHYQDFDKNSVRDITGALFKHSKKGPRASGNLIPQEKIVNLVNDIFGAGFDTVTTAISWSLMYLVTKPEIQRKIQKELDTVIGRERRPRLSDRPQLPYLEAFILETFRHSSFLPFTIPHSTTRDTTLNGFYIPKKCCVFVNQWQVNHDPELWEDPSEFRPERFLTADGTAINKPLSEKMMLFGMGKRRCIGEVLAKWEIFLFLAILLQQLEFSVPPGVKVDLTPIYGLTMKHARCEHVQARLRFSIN

Cytochrome P450 2C9 = Cytochrome P450 2C9 (Homo sapiens, UniProt P11712); test: Inhibition of human CYP2C9 by fluorescence assay; assay type: ADME
Cytochrome P450 2C19 = Cytochrome P450 2C19 (Homo sapiens, UniProt P33261); test: Inhibition of human CYP2C19 by fluorescence assay; assay type: ADME
Cytochrome P450 2D6 = Cytochrome P450 2D6 (Homo sapiens, UniProt P10635); test: Inhibition of human CYP2D6 by fluorescence assay; assay type: ADME
[10] = Solubility at pH 7.4; assay type: physicochemical; details: buffer
Cytochrome P450 3A4 [11] = target: T4, Cytochrome P450 3A4 (Homo sapiens, UniProt P08684); test: Inhibition of human CYP3A4 using BFC substrate by fluorescence assay; assay type: ADME
Cytochrome P450 3A4 [12] = target: T4, Cytochrome P450 3A4; test: Inhibition of human CYP3A4 using BQ substrate by fluorescence assay; assay type: ADME
[13] = Membrane permeability by PAMPA assay; assay type: ADME; details: read-out: permeability
Caco-2 = test: as §1; assay type: ADME, cell-based; details: caco-2, BLD = below limit of detection
Rattus norvegicus = species on record: Rattus norvegicus; test: Induction of relaxation activity of phenylephrine-induced Sprague-Dawley rat aortic ring contraction; assay type: functional; details: Aorta

T4 sequence (P08684 whole entry): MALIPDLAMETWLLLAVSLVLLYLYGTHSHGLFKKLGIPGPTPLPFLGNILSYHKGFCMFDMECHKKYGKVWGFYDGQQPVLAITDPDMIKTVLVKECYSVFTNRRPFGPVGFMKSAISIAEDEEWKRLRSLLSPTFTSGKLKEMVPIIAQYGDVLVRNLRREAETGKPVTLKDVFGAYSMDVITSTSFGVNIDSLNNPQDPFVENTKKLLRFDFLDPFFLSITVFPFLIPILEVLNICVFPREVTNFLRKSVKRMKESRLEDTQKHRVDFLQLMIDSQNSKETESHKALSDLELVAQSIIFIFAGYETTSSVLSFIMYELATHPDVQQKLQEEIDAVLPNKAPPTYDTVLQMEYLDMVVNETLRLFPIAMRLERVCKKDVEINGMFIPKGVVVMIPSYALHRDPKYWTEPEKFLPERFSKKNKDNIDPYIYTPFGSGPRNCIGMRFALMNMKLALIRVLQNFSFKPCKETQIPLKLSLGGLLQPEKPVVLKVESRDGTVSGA
Chain of Cytochrome P450 2D6 (P10635 whole entry): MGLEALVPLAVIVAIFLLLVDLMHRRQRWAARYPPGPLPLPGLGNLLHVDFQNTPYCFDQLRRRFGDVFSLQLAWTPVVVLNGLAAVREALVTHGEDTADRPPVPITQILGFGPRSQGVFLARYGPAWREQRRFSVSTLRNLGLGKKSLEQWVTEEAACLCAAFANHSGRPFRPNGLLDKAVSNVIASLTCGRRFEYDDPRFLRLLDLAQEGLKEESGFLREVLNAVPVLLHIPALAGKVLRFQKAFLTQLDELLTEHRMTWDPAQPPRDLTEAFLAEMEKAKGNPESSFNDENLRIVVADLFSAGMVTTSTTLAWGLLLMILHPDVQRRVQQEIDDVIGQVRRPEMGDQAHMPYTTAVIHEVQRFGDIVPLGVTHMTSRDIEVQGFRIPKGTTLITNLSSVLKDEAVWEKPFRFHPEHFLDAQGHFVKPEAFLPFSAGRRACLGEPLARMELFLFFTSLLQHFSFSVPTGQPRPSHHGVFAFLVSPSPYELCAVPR
Chain of Serine/threonine-protein kinase MRCK beta (Homo sapiens) (Q9Y5S2 whole entry, looked up): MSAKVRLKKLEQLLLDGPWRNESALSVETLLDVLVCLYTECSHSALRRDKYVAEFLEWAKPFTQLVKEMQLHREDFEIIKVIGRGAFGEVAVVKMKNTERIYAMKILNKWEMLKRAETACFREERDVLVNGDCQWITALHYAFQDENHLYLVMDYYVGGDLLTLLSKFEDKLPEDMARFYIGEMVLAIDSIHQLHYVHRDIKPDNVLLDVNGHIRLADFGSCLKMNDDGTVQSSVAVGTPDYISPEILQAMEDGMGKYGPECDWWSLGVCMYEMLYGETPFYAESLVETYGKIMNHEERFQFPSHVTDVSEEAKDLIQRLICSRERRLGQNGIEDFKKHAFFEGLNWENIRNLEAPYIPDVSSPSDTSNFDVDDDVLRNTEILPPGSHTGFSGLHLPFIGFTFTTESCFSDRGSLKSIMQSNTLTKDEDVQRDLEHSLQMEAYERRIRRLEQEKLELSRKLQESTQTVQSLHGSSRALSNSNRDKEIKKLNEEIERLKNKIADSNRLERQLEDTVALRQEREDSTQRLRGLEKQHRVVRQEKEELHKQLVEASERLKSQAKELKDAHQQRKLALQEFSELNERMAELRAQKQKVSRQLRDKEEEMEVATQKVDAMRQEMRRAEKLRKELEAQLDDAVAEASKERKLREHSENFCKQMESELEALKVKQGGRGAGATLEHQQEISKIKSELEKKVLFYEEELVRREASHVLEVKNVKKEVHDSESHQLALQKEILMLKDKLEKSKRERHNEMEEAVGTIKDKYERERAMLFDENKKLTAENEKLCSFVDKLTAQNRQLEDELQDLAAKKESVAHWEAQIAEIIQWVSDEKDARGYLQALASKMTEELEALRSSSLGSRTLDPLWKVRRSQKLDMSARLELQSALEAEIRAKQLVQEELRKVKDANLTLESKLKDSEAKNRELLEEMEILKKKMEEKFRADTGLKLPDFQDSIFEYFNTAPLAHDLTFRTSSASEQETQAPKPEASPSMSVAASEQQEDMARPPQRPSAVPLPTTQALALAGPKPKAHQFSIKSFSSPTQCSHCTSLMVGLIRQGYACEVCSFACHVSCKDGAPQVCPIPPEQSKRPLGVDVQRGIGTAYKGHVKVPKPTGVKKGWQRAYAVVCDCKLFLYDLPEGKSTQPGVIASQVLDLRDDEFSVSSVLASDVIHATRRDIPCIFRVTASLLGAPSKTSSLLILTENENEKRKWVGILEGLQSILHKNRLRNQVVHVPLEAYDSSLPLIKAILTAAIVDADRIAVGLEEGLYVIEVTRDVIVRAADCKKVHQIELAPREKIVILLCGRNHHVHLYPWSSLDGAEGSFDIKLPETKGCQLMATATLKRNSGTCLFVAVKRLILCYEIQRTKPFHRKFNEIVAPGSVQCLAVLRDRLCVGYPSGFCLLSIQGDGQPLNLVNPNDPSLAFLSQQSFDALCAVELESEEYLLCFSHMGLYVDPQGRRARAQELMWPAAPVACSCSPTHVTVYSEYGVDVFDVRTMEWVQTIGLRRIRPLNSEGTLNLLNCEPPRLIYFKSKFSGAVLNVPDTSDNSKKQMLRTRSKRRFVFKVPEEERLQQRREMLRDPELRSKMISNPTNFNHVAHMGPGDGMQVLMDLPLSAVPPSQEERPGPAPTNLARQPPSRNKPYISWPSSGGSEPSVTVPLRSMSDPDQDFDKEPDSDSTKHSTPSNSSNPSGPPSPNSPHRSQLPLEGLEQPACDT
Chain of Cytochrome P450 2C9 (P11712 whole entry): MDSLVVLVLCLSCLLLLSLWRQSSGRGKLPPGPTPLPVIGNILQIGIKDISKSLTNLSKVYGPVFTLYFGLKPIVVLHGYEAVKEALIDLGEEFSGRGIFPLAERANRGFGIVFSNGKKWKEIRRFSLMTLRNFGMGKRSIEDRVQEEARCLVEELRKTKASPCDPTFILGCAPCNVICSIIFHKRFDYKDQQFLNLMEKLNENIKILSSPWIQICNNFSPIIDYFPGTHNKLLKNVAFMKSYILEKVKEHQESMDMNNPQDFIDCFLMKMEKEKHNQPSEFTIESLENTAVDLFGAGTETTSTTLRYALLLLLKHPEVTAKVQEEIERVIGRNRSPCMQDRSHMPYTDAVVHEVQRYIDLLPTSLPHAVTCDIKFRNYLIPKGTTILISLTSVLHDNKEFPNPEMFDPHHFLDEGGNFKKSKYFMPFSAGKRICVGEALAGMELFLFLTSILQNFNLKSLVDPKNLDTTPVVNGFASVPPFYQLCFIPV
Chain of Cytochrome P450 2C19 (P33261 whole entry): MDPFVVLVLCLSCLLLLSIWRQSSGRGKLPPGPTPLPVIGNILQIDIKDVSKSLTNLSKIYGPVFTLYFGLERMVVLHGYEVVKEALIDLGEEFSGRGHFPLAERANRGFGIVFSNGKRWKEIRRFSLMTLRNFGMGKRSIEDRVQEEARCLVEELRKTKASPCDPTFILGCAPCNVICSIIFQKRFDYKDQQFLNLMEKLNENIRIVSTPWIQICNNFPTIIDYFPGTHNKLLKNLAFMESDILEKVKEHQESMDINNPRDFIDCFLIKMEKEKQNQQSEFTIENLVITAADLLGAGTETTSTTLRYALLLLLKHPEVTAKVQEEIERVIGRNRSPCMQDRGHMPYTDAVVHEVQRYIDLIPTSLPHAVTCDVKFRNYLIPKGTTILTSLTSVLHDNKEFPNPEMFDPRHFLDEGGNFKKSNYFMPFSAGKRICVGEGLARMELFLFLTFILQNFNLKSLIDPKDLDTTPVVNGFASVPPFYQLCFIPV
T1 sequence (O75116 whole entry): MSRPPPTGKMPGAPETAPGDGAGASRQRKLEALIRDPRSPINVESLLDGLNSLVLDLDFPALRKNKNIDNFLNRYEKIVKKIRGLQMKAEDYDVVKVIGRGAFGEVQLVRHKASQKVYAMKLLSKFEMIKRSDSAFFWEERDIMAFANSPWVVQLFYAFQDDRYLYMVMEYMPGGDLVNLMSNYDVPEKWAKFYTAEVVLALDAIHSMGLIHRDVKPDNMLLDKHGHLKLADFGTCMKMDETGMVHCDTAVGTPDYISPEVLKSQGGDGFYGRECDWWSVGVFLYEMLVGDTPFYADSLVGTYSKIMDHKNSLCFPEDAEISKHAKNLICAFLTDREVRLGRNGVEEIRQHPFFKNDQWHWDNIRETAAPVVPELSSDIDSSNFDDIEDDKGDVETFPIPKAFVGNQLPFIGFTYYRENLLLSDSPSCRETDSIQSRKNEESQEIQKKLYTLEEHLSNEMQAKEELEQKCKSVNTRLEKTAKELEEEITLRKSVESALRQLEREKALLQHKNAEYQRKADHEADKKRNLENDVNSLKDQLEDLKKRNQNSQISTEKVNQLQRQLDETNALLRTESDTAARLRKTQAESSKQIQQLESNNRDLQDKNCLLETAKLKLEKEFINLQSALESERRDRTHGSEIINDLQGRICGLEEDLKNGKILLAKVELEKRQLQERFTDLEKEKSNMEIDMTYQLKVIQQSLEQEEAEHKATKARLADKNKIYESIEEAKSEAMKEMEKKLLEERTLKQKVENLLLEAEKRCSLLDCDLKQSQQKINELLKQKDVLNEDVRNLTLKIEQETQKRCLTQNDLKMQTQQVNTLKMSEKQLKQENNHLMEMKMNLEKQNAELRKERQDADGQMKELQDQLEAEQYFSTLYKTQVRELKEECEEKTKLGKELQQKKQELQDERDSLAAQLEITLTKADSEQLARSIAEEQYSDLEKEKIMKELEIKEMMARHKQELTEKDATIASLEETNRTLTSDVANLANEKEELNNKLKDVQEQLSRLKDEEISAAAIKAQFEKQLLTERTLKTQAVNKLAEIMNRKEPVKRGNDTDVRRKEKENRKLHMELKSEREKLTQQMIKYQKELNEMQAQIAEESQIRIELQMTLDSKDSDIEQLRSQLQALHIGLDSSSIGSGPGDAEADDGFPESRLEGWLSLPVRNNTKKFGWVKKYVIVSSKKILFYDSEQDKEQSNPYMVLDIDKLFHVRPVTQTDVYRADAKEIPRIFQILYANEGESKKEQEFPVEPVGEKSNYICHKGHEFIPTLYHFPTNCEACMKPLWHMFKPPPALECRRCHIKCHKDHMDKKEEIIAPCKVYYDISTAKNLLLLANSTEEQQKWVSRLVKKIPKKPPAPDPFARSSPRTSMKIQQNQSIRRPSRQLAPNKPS

SMILES: COc1ccc(C(=O)NCc2cccc(C(=O)Nc3ccc4c(c3)CCNC4)c2)cc1OC
IC50 [1]: 320 nM
IC50 [2]: 100 µM

SMILES: CCCNC(=O)c1cccc(CNC(=O)c2ccc(OC)c(OC)c2)c1
IC50 [3]: 5 µM

SMILES: COc1ccc(C(=O)Nc2cccc(C(=O)NCCC3CCCNC3)c2)cc1OC (configuration not stated)
IC50 [3]: > 6000 µM

SMILES: COc1ccc(S(=O)(=O)NCc2cccc(C(=O)NCCC3CCCNC3)c2)cc1OC (configuration not stated)
IC50 [3]: > 6000 µM

SMILES: COc1ccc(CNC(=O)c2cccc(C(=O)NCCC3CCCNC3)c2)cc1OC (configuration not stated)
IC50 [3]: > 6000 µM

SMILES: N#Cc1cccc(NC(=O)NCc2cccc(C(=O)NCCC3CCCNC3)c2)c1 (configuration not stated)
IC50 [4]: > 5 µM
IC50 [5]: > 5 µM
IC50 [3]: 0.089 µM
IC50 [6]: > 5 µM

SMILES: O=C(NCCc1ccncc1)c1cccc(CNC(=O)c2ccc3c(c2)OCO3)c1
IC50 [3]: > 7000 µM

SMILES: COc1ccc(C(=O)NCc2cccc(C(=O)NCCC3CCCNC3)c2)cc1OC (configuration not stated)
Papp A→B [7]: 0.1 ×10⁻⁶ cm/s
Papp B→A [8]: 0.8 ×10⁻⁶ cm/s
half-life [9]: 139 min
IC50 (Cytochrome P450 1A2): > 30 µM
IC50 (Cytochrome P450 2C9): > 30 µM
IC50 (Cytochrome P450 2C19): > 30 µM
IC50 (Cytochrome P450 2D6): > 30 µM
IC50 [4]: > 5 µM
IC50 [1]: 140 nM
solubility [10]: 16 µg/mL (≈ 37.6 µM)
IC50 (Cytochrome P450 3A4 [11]): > 30 µM
IC50 (Cytochrome P450 3A4 [12]): > 30 µM
IC50 [5]: 4.4 µM
IC50 [3]: 0.053 µM
IC50 [6]: > 5 µM

SMILES: COc1cccc(C(=O)NCc2cccc(C(=O)NCCc3ccncc3)c2)c1
IC50 [3]: > 7000 µM

SMILES: Cc1ccc(C(=O)NCc2cccc(C(=O)NCCc3ccncc3)c2)cc1C
IC50 [3]: > 7000 µM

SMILES: COc1ccc(C(=O)NCc2cccc(C(=O)NCC3CCCO3)c2)cc1OC (racemic)
IC50 [2]: 1.2 µM

SMILES: COc1ccc(NC(=O)Nc2cccc(C(=O)NCCC3CCCNC3)c2)cc1OC (configuration not stated)
IC50 [3]: > 7000 µM

SMILES: COc1ccc(C(=O)NCc2cccc(C(=O)NCCC3CCNCC3)c2)cc1OC
Papp A→B [7]: 0.1 ×10⁻⁶ cm/s
Papp B→A [8]: 0.6 ×10⁻⁶ cm/s
half-life [9]: 87 min
IC50 (Cytochrome P450 1A2): > 30 µM
IC50 (Cytochrome P450 2C9): > 30 µM
IC50 (Cytochrome P450 2C19): > 30 µM
IC50 (Cytochrome P450 2D6): > 30 µM
IC50 [4]: > 5 µM
Papp [13]: 0.6 ×10⁻⁶ cm/s
solubility [10]: 67 µg/mL (≈ 157 µM)
IC50 (Cytochrome P450 3A4 [11]): > 30 µM
IC50 (Cytochrome P450 3A4 [12]): > 30 µM
IC50 [5]: > 5 µM
IC50 [6]: > 5 µM

SMILES: O=S(=O)(c1cccc2cnccc12)N1CCCNCC1 [FASUDIL]
IC50 (Rattus norvegicus): 6.1 µM

SMILES: COc1ccc(C(=O)NCc2cccc(C(=O)Nc3ccc4c(c3)CN(C)CC4)c2)cc1OC
Papp A→B [7]: 0.3 ×10⁻⁶ cm/s
Papp B→A [8]: 27.1 ×10⁻⁶ cm/s
half-life [9]: 55 min
IC50 (Cytochrome P450 1A2): > 30 µM
IC50 (Cytochrome P450 2C9): > 30 µM
IC50 (Cytochrome P450 2C19): > 30 µM
IC50 (Cytochrome P450 2D6): > 30 µM
IC50 [4]: > 5 µM
Papp [13]: 16 ×10⁻⁶ cm/s
IC50 (Rattus norvegicus): 1.2 µM
solubility [10]: > 85 µg/mL
IC50 (Cytochrome P450 3A4 [11]): 1.7 µM
IC50 (Cytochrome P450 3A4 [12]): > 30 µM
IC50 [5]: > 5 µM
IC50 [3]: 0.046 µM
IC50 [6]: > 5 µM

SMILES: COc1ccc(NC(=O)NCc2cccc(C(=O)NCCC3CCCNC3)c2)cc1OC (configuration not stated)
IC50 [2]: 1600 µM

SMILES: COc1ccc(CC(=O)Nc2cccc(C(=O)NCCC3CCCNC3)c2)cc1OC (configuration not stated)
IC50 [2]: 3200 µM

SMILES: CN(C)Cc1ccc(NC(=O)c2cccc(CNC(=O)Nc3ccc(C#N)c(Cl)c3)c2)cc1
IC50 [1]: 45 nM
IC50 [2]: 10 µM

SMILES: COc1ccc(C(=O)NCc2cccc(C(=O)NCCC3CCCN(C)C3)c2)cc1OC (configuration not stated)
IC50 [2]: 102 µM

SMILES: N#Cc1cccc(NC(=O)NCc2cccc(C(=O)NCC3CCCO3)c2)c1 (racemic)
IC50 [3]: 3.5 µM

SMILES: COc1ccc(C(=O)NCc2cccc(C(=O)Nc3ccc4cnccc4c3)c2)cc1OC
IC50 [2]: 685 µM

SMILES: COc1ccc(NC(=O)Cc2cccc(NC(=O)CCC3CCCNC3)c2)cc1OC (configuration not stated)
IC50 [2]: 37 µM

SMILES: COc1ccc(C(=O)NCc2cccc(C(=O)NCCc3ccncc3)c2)cc1
IC50 [3]: > 7000 µM

Results, then the compound that gave them:

IC50 [1]: 1300 nM
IC50 [2]: 670 µM
SMILES: CN(C)Cc1ccc(NC(=O)c2cccc(CNC(=O)c3ccc(OC(F)(F)F)c(Cl)c3)c2)cc1

IC50 [1]: 14 nM
IC50 [2]: 8 µM
SMILES: CN(C)Cc1ccc(NC(=O)c2cccc(CNC(=O)Nc3ccc(C(N)=O)cc3)c2)cc1

IC50 [1]: > 6500 nM
SMILES: COc1ccc(C(=O)NCc2cccc(C(=O)Nc3ccc(CN(C)C)cc3)c2)cc1

IC50 [4]: > 5 µM
IC50 [1]: 160 nM
IC50 [5]: > 5 µM
IC50 [3]: 0.065 µM
IC50 [6]: > 5 µM
SMILES: CN(C)Cc1ccc(NC(=O)c2cccc(CNC(=O)Nc3ccc(C#N)cc3)c2)cc1

IC50 [2]: 65 µM
SMILES: N#Cc1ccc(NC(=O)NCc2cccc(C(=O)NCCC3CCNCC3)c2)cc1

IC50 [2]: 110 µM
SMILES: N#Cc1ccc(NC(=O)NCc2cccc(NC(=O)CCC3CCCNC3)c2)cc1 (configuration not stated)

IC50 [3]: 5.5 µM
SMILES: N#Cc1cccc(NC(=O)NCc2cccc(C(=O)NCCc3ccncc3)c2)c1

permeability (Caco-2): BLD
Papp B→A [8]: 8.8 ×10⁻⁶ cm/s
half-life [9]: 189 min
IC50 (Cytochrome P450 1A2): > 30 µM
IC50 (Cytochrome P450 2C9): 22 µM
IC50 (Cytochrome P450 2C19): > 30 µM
IC50 (Cytochrome P450 2D6): > 30 µM
IC50 [4]: > 5 µM
IC50 (Rattus norvegicus): 8.5 µM
IC50 [1]: 48 nM
solubility [10]: > 100 µg/mL
IC50 (Cytochrome P450 3A4 [11]): 5.9 µM
IC50 (Cytochrome P450 3A4 [12]): > 30 µM
IC50 [5]: 1.6 µM
IC50 [3]: 0.014 µM
IC50 [6]: > 5 µM
SMILES: N#Cc1ccc(NC(=O)NCc2cccc(C(=O)Nc3ccc4c(c3)CNCC4)c2)cc1

IC50 [1]: 290 nM
IC50 [2]: 240 µM
SMILES: CN(C)Cc1ccc(NC(=O)c2cccc(CNC(=O)Nc3cccc(C(N)=O)c3)c2)cc1

IC50 [1]: > 6400 nM
IC50 [3]: > 6 µM
SMILES: CN(C)Cc1ccc(NC(=O)c2cccc(CNC(=O)c3ccc(O)c(O)c3)c2)cc1

IC50 [1]: 350 nM
IC50 [2]: 160 µM
SMILES: COc1ccc(C(=O)NCc2cccc(C(=O)Nc3ccc(CN(C)C)cc3)c2)cc1C(F)(F)F

IC50 [1]: 210 nM
IC50 [2]: 70 µM
SMILES: N#Cc1ccc(NC(=O)NCc2cccc(C(=O)Nc3ccc(CN)cc3)c2)cc1

IC50 [1]: > 6500 nM
SMILES: CN(C)Cc1ccc(NC(=O)c2cccc(CNC(=O)c3ccc(C#N)cc3)c2)cc1

IC50 [1]: > 7000 nM
IC50 [3]: > 7 µM
SMILES: COc1cccc(C(=O)NCc2cccc(C(=O)Nc3ccc(CN(C)C)cc3)c2)c1

IC50 [1]: 180 nM
IC50 [2]: 74 µM
SMILES: CN(C)Cc1ccc(NC(=O)c2cccc(CNC(=O)Nc3ccc(C(N)=O)c(Cl)c3)c2)cc1
